One series is described as follows: Solubility in water. The format is physicochemical. From the text:
The compound is referred to in Kaneko et al U.S. Pat. No. 4,785,085 as 6-(2-diethylaminoethyl)rebeccmycin and its preparation is described in Example 1 of the patent and its effectiveness to inhibit growth of tumors in experimental animal systems is shown in Table 3 of the patent. […] Instead, it forms a suspension.
Besides being stable at room temperature, the solutions herein have enhanced solubility at low temperatures, e.g., refrigeration temperatures or cold conditions encountered during shipping or storage, etc.
Pharmaceutically acceptable acid components (c) which meet this solubility criterion include, for example, L-(+)-tartaric, D,L-malic, L-(-)-malic, citric, L-(+)-lactic, lactobionic, methanesulfonic, phosphoric, pyroglutamic, succinic and sulfuric acids. The most preferred acid of these is L-(+)-tartaric acid.

Series [1] has as its system transplanted mouse leukemia P-338. The settings on record: for % T/C (median survival time) / MST (median survival time): IV, 5 daily injections; for AWC (average weight change at Day 5): mouse, in vivo, iv.
Text: (§1) The screening procedures involved administration of test compound intraperitonially (IP) to CDF1 female mice (18 to 22 grams) infected with 1×10^6 ascites cells intraperitonially, and intravenously (IV) to CDF1 female mice (18 to 22 Grams) infected with 1×10 ascites cells intravenously. Drug therapy was started on Day 1 (date of implant) and consisted of 1 injection per day for 5 successive days. […] Mitomycin C is included for comparison purposes.
Series [2] shares this test system.
Text: as §1
Series [3] can be described thus: Long term physical stability of aqueous solutions at room temperature. In kind it is physicochemical. The settings on record: one molar equivalent of acid; period less than 2 years at room temperature. The text has this:
These unexpected physical instabilities include gelling, precipitation, cloudiness, and formation of liquid crystalline phases which render solutions of the crystalline salts unsuitable for practical use as, or for dilution with water to provide, injectable solutions.

Setting [4] is: IP, 4.8 mg/kg/inj, 5 daily injections.

Counter-ions that a name gives are not always drawn. Like-named read-outs stand apart in the source and are kept apart here.

As to `CCN(CC)CCN1C(=O)c2c(c3c4cccc(Cl)c4n([C@@H]4O[C@H](CO)[C@@H](OC)[C@H](O)[C@H]4O)c3c3[nH]c4c(Cl)cccc4c23)C1=O`, the “solubility in water (in words)” value in “Solubility in water” (added to water to form an aqueous injectable solution) was “not sufficiently soluble in water”.
Turning to `CO[C@@]12[C@H](COC(N)=O)C3=C(C(=O)C(C)=C(N)C3=O)N1C[C@@H]1N[C@@H]12` [Mitomycin C], the figures for the “% T/C (median survival time)” value in series [1] (1.6 mg/kg/inj), in series [1] (4.8 mg/kg/inj) and in series [2] (setting [4]) were 127%, 160% and 205%, respectively. Moreover, the “MST (median survival time)” value in series [1] (1.6 mg/kg/inj) amounted to 9.5 days; in series [1] (4.8 mg/kg/inj), 12.0 days; in series [2] (setting [4]) it was 20.5 days. Besides, the “AWC (average weight change at Day 5)” value in series [1] (1.6 mg/kg) is 0.4 Grams; in series [1] (4.8 mg/kg) it was -0.1 Grams; in series [2] (mouse, in vivo, ip, 4.8 mg/kg), -0.6 Grams.
Take `CCN(CC)CCN1C(=O)c2c(c3c4cccc(Cl)c4n([C@@H]4O[C@H](CO)[C@@H](OC)[C@H](O)[C@H]4O)c3c3[nH]c4c(Cl)cccc4c23)C1=O` [hydrochloride salt]: the “physical instability / shelf stability of solutions of acid addition salts (in words)” value in series [3] is listed as “do not form aqueous solutions which are sufficiently shelf stable”.
`CCN(CC)CCN1C(=O)c2c(c3c4cccc(Cl)c4n([C@@H]4O[C@H](CO)[C@@H](OC)[C@H](O)[C@H]4O)c3c3[nH]c4c(Cl)cccc4c23)C1=O` [succinic]: in “Solubility in water” (water, salt formed from free base and a molar equivalent of acid, room temperature, read-out: solubility of acid addition salt in water), the solubility is above 25 mg/mL.

For orientation: solubility means the concentration that dissolves in the medium under given conditions.

Source of the values: patent US5496809A, “Stable solutions of rebeccamycin analog” (priority 1989, dated 1996).
